Non-standard residues stand in square brackets, D forms with d. pGlu = O=C1CC[C@@H](C(=O)O)N1
How the values were obtained:
Format in all cases: cell-based, human
[1] = tested on: whole blood from subjects with T1D and Celiac disease; test: Whole blood cytokine release assay, IL-2 (MAGPIX), Example 1; details: for Whole blood IL-2 release / Whole blood IL-2 release, fold-change over medium only: 10 uM; for IL-2 fold-change / IL-2 fold-change (preproinsulin peptides): individual 17mer 20 μg/mL, blood 6 days after commencing oral gluten challenge
[2] = tested on: whole blood from subjects with T1D and Celiac disease; test: Whole blood cytokine release assay, IP-10 (MAGPIX), Example 1; details: for Whole blood IP-10 release / Whole blood IP-10 release, fold-change over medium only: 10 uM
[3] = tested on: whole blood from subjects with T1D and Celiac disease; test: Whole blood cytokine release assay, IFN-γ (MAGPIX), Example 1; details: for Whole blood IFNg release / Whole blood IFNg release, fold-change over medium only: 10 uM; for IFN-g fold-change / IFN-g fold-change (preproinsulin peptides): individual 17mer 20 μg/mL, blood 6 days after commencing oral gluten challenge
[4] = subject 1, day 0 since oral challenge
[5] = subject 1, day 6 since oral challenge
[6] = subject 2, day 0 since oral challenge
[7] = subject 2, day 6 since oral challenge
[8] = subject 6, day 0 since oral challenge
[9] = subject 6, day 6 since oral challenge
[10] = subject 7, day 0 since oral challenge
[11] = subject 7, day 6 since oral challenge
[12] = Subject 1, individual 17mer 20 μg/mL, blood 6 days after commencing oral gluten challenge
[13] = Subject 2, individual 17mer 20 μg/mL, blood 6 days after commencing oral gluten challenge
[14] = Subject 6, individual 17mer 20 μg/mL, blood 6 days after commencing oral gluten challenge
[15] = Subject 7, individual 17mer 20 μg/mL, blood 6 days after commencing oral gluten challenge

Substance: (pE)QPFPQPEQPFPWQP-NH2 ([pGlu]QPFPQPEQPFPWQP-NH2; SMILES NC(=O)CC[C@H](NC(=O)[C@H](Cc1c[nH]c2ccccc12)NC(=O)[C@@H]1CCCN1C(=O)[C@H](Cc1ccccc1)NC(=O)[C@@H]1CCCN1C(=O)[C@H](CCC(N)=O)NC(=O)[C@H](CCC(=O)O)NC(=O)[C@@H]1CCCN1C(=O)[C@H](CCC(N)=O)NC(=O)[C@@H]1CCCN1C(=O)[C@H](Cc1ccccc1)NC(=O)[C@@H]1CCCN1C(=O)[C@H](CCC(N)=O)NC(=O)[C@@H]1CCC(=O)N1)C(=O)N1CCC[C@H]1C(N)=O) [SEQ ID NO: 43, gluten peptide, reference compound]
- Whole blood IL-2 release [1, 4]: 3.2 pg/mL
- Whole blood IL-2 release, fold-change over medium only [1, 4]: 1.00
- Whole blood IL-2 release [1, 5]: 3.2 pg/mL
- Whole blood IL-2 release, fold-change over medium only [1, 5]: 1.00
- Whole blood IL-2 release [1, 6]: 3.2 pg/mL
- Whole blood IL-2 release, fold-change over medium only [1, 6]: 1.00
- Whole blood IL-2 release [1, 7]: 5.2 pg/mL
- Whole blood IL-2 release, fold-change over medium only [1, 7]: 1.61
- Whole blood IL-2 release [1, 8]: 17.9 pg/mL
- Whole blood IL-2 release, fold-change over medium only [1, 8]: 3.62
- Whole blood IL-2 release [1, 9]: 115. 9 pg/mL
- Whole blood IL-2 release, fold-change over medium only [1, 9]: 27.33
- Whole blood IL-2 release [1, 10]: 41.4 pg/mL
- Whole blood IL-2 release, fold-change over medium only [1, 10]: 0.66
- Whole blood IL-2 release [1, 11]: 55.1 pg/mL
- Whole blood IL-2 release, fold-change over medium only [1, 11]: 1.31
- Whole blood IP-10 release [2, 4]: 218 pg/mL
- Whole blood IP-10 release, fold-change over medium only [2, 4]: 0.82
- Whole blood IP-10 release [2, 5]: 501 pg/mL
- Whole blood IP-10 release, fold-change over medium only [2, 5]: 1.49
- Whole blood IP-10 release [2, 6]: 376 pg/mL
- Whole blood IP-10 release, fold-change over medium only [2, 6]: 1.42
- Whole blood IP-10 release [2, 7]: 1140 pg/mL
- Whole blood IP-10 release, fold-change over medium only [2, 7]: 3.65
- Whole blood IP-10 release [2, 8]: 1934 pg/mL
- Whole blood IP-10 release, fold-change over medium only [2, 8]: 6.98
- Whole blood IP-10 release [2, 9]: 10000 pg/mL
- Whole blood IP-10 release, fold-change over medium only [2, 9]: 49.76
- Whole blood IP-10 release [2, 10]: 900 pg/mL
- Whole blood IP-10 release, fold-change over medium only [2, 10]: 1.21
- Whole blood IP-10 release [2, 11]: 10000 pg/mL
- Whole blood IP-10 release, fold-change over medium only [2, 11]: 11.21
- Whole blood IFNg release [3, 4]: 60 pg/mL
- Whole blood IFNg release, fold-change over medium only [3, 4]: 1.09
- Whole blood IFNg release [3, 5]: 62 pg/mL
- Whole blood IFNg release, fold-change over medium only [3, 5]: 0.95
- Whole blood IFNg release [3, 6]: 4.5 pg/mL
- Whole blood IFNg release, fold-change over medium only [3, 6]: 1.19
- Whole blood IFNg release [3, 7]: 6.4 pg/mL
- Whole blood IFNg release, fold-change over medium only [3, 7]: 1.32
- Whole blood IFNg release [3, 8]: 94 pg/mL
- Whole blood IFNg release, fold-change over medium only [3, 8]: 0.98
- Whole blood IFNg release [3, 9]: 258 pg/mL
- Whole blood IFNg release, fold-change over medium only [3, 9]: 2.63
- Whole blood IFNg release [3, 10]: 158 pg/mL
- Whole blood IFNg release, fold-change over medium only [3, 10]: 0.66
- Whole blood IFNg release [3, 11]: 150 pg/mL
- Whole blood IFNg release, fold-change over medium only [3, 11]: 1.00

Substance: CGSHLVEALYLVCGERG [SEQ ID NO: 53]
- IL-2 fold-change ([1]; Subject 1): 1.00
- IL-2 fold-change (preproinsulin peptides) ([1]; Subject 1): 1.00 fold
- IL-2 fold-change ([1]; Subject 2): 1.00
- IL-2 fold-change (preproinsulin peptides) ([1]; Subject 2): 1.00 fold
- IL-2 fold-change ([1]; Subject 6): 1.08
- IL-2 fold-change (preproinsulin peptides) ([1]; Subject 6): 1.08 fold
- IL-2 fold-change ([1]; Subject 7): 0.56
- IL-2 fold-change (preproinsulin peptides) ([1]; Subject 7): 0.56 fold
- IP-10 fold-change [2, 12]: 1.13
- IP-10 fold-change (preproinsulin peptides) [2, 12]: 1.13 fold
- IP-10 fold-change [2, 13]: 1.50
- IP-10 fold-change (preproinsulin peptides) [2, 13]: 1.50 fold
- IP-10 fold-change [2, 14]: 3.30
- IP-10 fold-change (preproinsulin peptides) [2, 14]: 3.30 fold
- IP-10 fold-change [2, 15]: 0.83
- IP-10 fold-change (preproinsulin peptides) [2, 15]: 0.83 fold
- subjects with elevated whole blood IP-10 release (2-fold greater than medium alone) ([2]; individual 17mer 20 μg/mL, four subjects, blood 6 days after commencing oral gluten challenge): more weakly
- IFN-g fold-change ([3]; Subject 1): 0.99
- IFN-g fold-change (preproinsulin peptides) ([3]; Subject 1): 0.99 fold
- IFN-g fold-change ([3]; Subject 2): 1.01
- IFN-g fold-change (preproinsulin peptides) ([3]; Subject 2): 1.01 fold
- IFN-g fold-change ([3]; Subject 6): 0.74
- IFN-g fold-change (preproinsulin peptides) ([3]; Subject 6): 0.74 fold
- IFN-g fold-change ([3]; Subject 7): 0.69
- IFN-g fold-change (preproinsulin peptides) ([3]; Subject 7): 0.69 fold

Substance: EAEVGQVELGGGPGAGS [SEQ ID NO: 56]
- IL-2 fold-change ([1]; Subject 1): 1.00
- IL-2 fold-change (preproinsulin peptides) ([1]; Subject 1): 1.00 fold
- IL-2 fold-change ([1]; Subject 2): 1.00
- IL-2 fold-change (preproinsulin peptides) ([1]; Subject 2): 1.00 fold
- IL-2 fold-change ([1]; Subject 6): 1.00
- IL-2 fold-change (preproinsulin peptides) ([1]; Subject 6): 1.00 fold
- IL-2 fold-change ([1]; Subject 7): 4.83
- IL-2 fold-change (preproinsulin peptides) ([1]; Subject 7): 4.83 fold
- IP-10 fold-change [2, 12]: 0.96
- IP-10 fold-change (preproinsulin peptides) [2, 12]: 0.96 fold
- IP-10 fold-change [2, 13]: 1.05
- IP-10 fold-change (preproinsulin peptides) [2, 13]: 1.05 fold
- IP-10 fold-change [2, 14]: 0.91
- IP-10 fold-change (preproinsulin peptides) [2, 14]: 0.91 fold
- IP-10 fold-change [2, 15]: 1.43
- IP-10 fold-change (preproinsulin peptides) [2, 15]: 1.43 fold
- IFN-g fold-change ([3]; Subject 1): 1.07
- IFN-g fold-change (preproinsulin peptides) ([3]; Subject 1): 1.07 fold
- IFN-g fold-change ([3]; Subject 2): 0.82
- IFN-g fold-change (preproinsulin peptides) ([3]; Subject 2): 0.82 fold
- IFN-g fold-change ([3]; Subject 6): 0.97
- IFN-g fold-change (preproinsulin peptides) ([3]; Subject 6): 0.97 fold
- IFN-g fold-change ([3]; Subject 7): 1.55
- IFN-g fold-change (preproinsulin peptides) ([3]; Subject 7): 1.55 fold

From patent publication US10473647B1, “Peptides for use in treatment and diagnosis of type 1 diabetes” (ImmusanT, Inc., priority 2014, dated 2019)
